Measured values reported in publication PMC11494503, “Next Generation SICLOPPS Screening for the Identification of Inhibitors of the HIF-1α/HIF-1β Protein–Protein Interaction” (ACS Chemical Biology, 2024).
Where two headings read alike, the source gives them in different places. Peptide text beside a SMILES is read from it.

Experiments:
PAS-B domain of HIF-1α = biological target: T1, PAS-B domain of HIF-1α (Homo sapiens, UniProt Q16665); assay: Microscale thermophoresis (MST) binding to HIF-1α PAS-B domain
T1 construct: The HIF-1a PAS-B domain was expressed and purified as previously described; made in house
T1 sequence (Q16665 228-298 limits assumed): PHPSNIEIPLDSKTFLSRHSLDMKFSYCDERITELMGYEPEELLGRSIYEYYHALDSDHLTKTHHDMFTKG
Description: We synthesized the top 20 cyclic peptides from the ranking approach. We also synthesized cyclo-CLLFVY as a control.[14] These compounds were assessed for binding to the PAS-B domain of HIF-1α by microscale thermophoresis (MST). […]

HIF-1α/HIF-1β PPI = assay: SICLOPPS CX5 library screen in HIF-1 RTHS with biopanning and NGS; format: cell-based, E. coli; conditions: after 2 rounds of biopanning
Text: The HIF-1 RTHS links the PPI between HIF-1α-P22 and HIF-1β-434 fusion proteins to the life/death of the host E. coli via three reporter genes.[14] Interaction of HIF-1α and HIF-1β results in the formation of a chimeric P22/434 repressor that inhibits the transcription of the KanR and His3 reporter genes, which are required for cell survival in selection media (Figure S1). Disruption of the HIF-1α/HIF-1β PPI also disrupts the repressor complex, leading to transcription of the reporter genes and survival of colonies that contain cyclic peptide HIF-1 inhibitors. Thus, cells containing cyclic peptide inhibitors of the targeted PPI will survive and grow on selective media, whereas all others will not. The HIF-1 RTHS cells were transformed with the sequenced CX5 library and, after recovery, plated onto a selective medium. After incubation for 48 h at 37 °C, selection plates were scraped to collect all colonies, and the SICLOPPS plasmids were isolated. The extein coding region of these plasmids was subsequently sequenced by NGS. We observed sequence enrichment after one round of biopanning, with the three sequences (CAAAAA, CRLYVL, and CVTYVL) making up 7.8% of the entire library with over 10 000 copies each per 1 M reads (Figure 2a). The prevalence of the control sequence was reduced by 44% from 80 000 to 45 000 copies per million reads, which further indicated enrichment of cyclic peptide inhibitors of the HIF-1α/HIF-1β PPI in the RTHS. The next 47 sequences were present with over 1000 copies after round 1 which made up a further 15% of the library (Figure 2a). HIF-1 RTHS cells were transformed with the SICLOPPS plasmid library isolated from round 1 of biopanning, for a second round of selection. After incubation, all colonies were scraped, and plasmids were isolated and sequenced by NGS as before. We observed further sequence enrichment after the second round of biopanning, evident by the shift of the library population from the mostly low-prevalence sequences in both the naïve library and after one round of biopanning to mostly highly prevalent cyclic peptide sequences after round 2 of biopanning (Figure 2b). With 159 000 copies per 1 M reads, the most prevalent sequence is CRTYIL, while the next 14 sequences were all present with more than 10 000 copies per 1 M. The top 15 sequences make up over 50% of the entire library. The CA5 internal standard dropped to 0.5%, providing further evidence of enrichment of active inhibitors during biopanning.
All reagents were purchased from Fisher Scientific or Sigma Aldrich UK unless specified otherwise.
Restriction enzymes and microbiology reagents were purchased from New England Biolabs Inc., FisherScientific (UK) or Promega (UK) and were used as directed by the manufacturer. Primers and oligonucleotides were synthesised by Integrated DNA Technologies (UK). DNA sequencing was carried out by Eurofins MWG Operon (Germany).
Construction of the RTHS and SICLOPPS library was conducted as previously described.2 […]
Electrocompetent RTHS-HIF 1 cells2 were transformed with 100 ng freshly prepared SICLOPPS CX5 library, prepared as previously detailed.3 The recovery mixture was plated on 6 square plates containing M9 minimal media supplemented with 50 µg/mL ampicillin, 25 µg/mL Spectinomycin, 50 µg/mL kanamycin, 35 µg/mL chloramphenicol, 100 µM IPTG, 6.5 µM L-arabinose and 7.5 mM 3-amino triazole and incubate at 37 °C for 48 h. To ensure sufficie transformation efficiency, 10 µL transformation mixture was subjected to 10-fold serial dilutions plated on LB-agar with 35 µg/m […]
Chloramphenicol. […] All cells were […]
then harvested by resuspending the colonies in a total of 50 mL LB medium and transferring to a centrifuge tube and centrifugation for 30 min at 4000 rpm and 4°C. The cell pellet was then subjected to maxi prep (GeneJET Plasmid Maxiprep kit Thermo Scientific) and the resulting plasmid library was used for the next round of biopanning and NGS. The second round of bio panning was […]

[1] = MST, HIF-1α PAS-B, mean (n = 3) ± SEM, read-out: KD

## CC(C)C[C@@H]1NC(=O)[C@H](CC(N)=O)NC(=O)[C@H](CC(C)C)NC(=O)[C@H](CC(C)C)NC(=O)[C@H](Cc2ccccc2)NC(=O)[C@H](CS)NC1=O [CFLLNL, cyclo-CFLLNL] (cyclo(CFLLNL))
PAS-B domain of HIF-1α; [1]
  Kd: 103 ± 8 µM
HIF-1α/HIF-1β PPI
  Enrichment after pan 2 [%]: 1.509%

## CC(C)C[C@@H]1NC(=O)[C@H](CCCCN)NC(=O)[C@H](CS)NC(=O)[C@H](CC(C)C)NC(=O)[C@H](CC(C)C)NC(=O)[C@H](Cc2ccccc2)NC1=O [CKLFLL] (cyclo(CKLFLL))
HIF-1α/HIF-1β PPI
  Enrichment after pan 2 [%]: 0.6884%

## CC(C)C[C@@H]1NC(=O)[C@H](CC(C)C)NC(=O)[C@H](Cc2ccccc2)NC(=O)[C@H](C(C)C)NC(=O)[C@H](CCCCN)NC(=O)[C@H](CS)NC1=O [CKVFLL, cyclo-CKVFLL] (cyclo(CKVFLL))
PAS-B domain of HIF-1α; [1]
  Kd: 42 ± 12 µM
HIF-1α/HIF-1β PPI
  Enrichment after pan 2 [%]: 3.064%

## CC(C)C[C@@H]1NC(=O)[C@H](CS)NC(=O)[C@H](Cc2ccccc2)NC(=O)[C@H](CC(C)C)NC(=O)[C@H](CC(C)C)NC(=O)[C@H](CS)NC1=O [CLLFCL, cyclo-CLLFCL] (cyclo(CLCLLF))
PAS-B domain of HIF-1α
  Kd: 0.47 ± 0.01 µM
PAS-B domain of HIF-1α; MST, HIF-1α
  fold better KD than the control peptide cyclo-CLLFVY in the same assay: > 80 fold
HIF-1α/HIF-1β PPI
  Enrichment after pan 2 [%]: 1.071%

## CC[C@H](C)[C@@H]1NC(=O)[C@H](Cc2ccccc2)NC(=O)[C@H]([C@@H](C)CC)NC(=O)[C@H](CCCNC(=N)N)NC(=O)[C@H](CS)NC(=O)[C@H](CCSC)NC1=O [CRIFIM, cyclo-CRIFIM] (cyclo(CRIFIM))
PAS-B domain of HIF-1α; [1]
  Kd: 26 ± 1 µM
HIF-1α/HIF-1β PPI
  Enrichment after pan 2 [%]: 1.319%

## CC[C@H](C)[C@@H]1NC(=O)[C@H](CC(C)C)NC(=O)[C@H]([C@@H](C)CC)NC(=O)[C@H](CCCNC(=N)N)NC(=O)[C@H](CS)NC(=O)[C@H](CC(C)C)NC1=O [CRILIL, cyclo-CRILIL] (cyclo(CRILIL))
PAS-B domain of HIF-1α; [1]
  Kd: 20 ± 1 µM
HIF-1α/HIF-1β PPI
  Enrichment after pan 2 [%]: 2.819%

## CC[C@H](C)[C@@H]1NC(=O)[C@H](CC(C)C)NC(=O)[C@H](CCCNC(=N)N)NC(=O)[C@H](CS)NC(=O)[C@H](C(C)C)NC(=O)[C@H]([C@@H](C)CC)NC1=O [CRLIIV, cyclo-CRLIIV] (cyclo(CRLIIV))
PAS-B domain of HIF-1α; [1]
  Kd: 28 ± 2 µM
HIF-1α/HIF-1β PPI
  Enrichment after pan 2 [%]: 1.138%

## CC[C@H](C)[C@@H]1NC(=O)[C@H](CC(C)C)NC(=O)[C@H](CC(C)C)NC(=O)[C@H](CCCNC(=N)N)NC(=O)[C@H](CS)NC(=O)[C@H](CC(C)C)NC1=O [CRLLIL, cyclo-CRLLIL] (cyclo(CRLLIL))
PAS-B domain of HIF-1α; [1]
  Kd: 20 ± 1 µM
HIF-1α/HIF-1β PPI
  Enrichment after pan 2 [%]: 1.196%

## CC[C@H](C)[C@@H]1NC(=O)[C@H](Cc2ccc(O)cc2)NC(=O)[C@H](CC(C)C)NC(=O)[C@H](CCCNC(=N)N)NC(=O)[C@H](CS)NC(=O)[C@H](C(C)C)NC1=O [CRLYIV, cyclo-CRLYIV] (cyclo(CRLYIV))
PAS-B domain of HIF-1α; [1]
  Kd: 122 ± 4 µM
HIF-1α/HIF-1β PPI
  Enrichment after pan 2 [%]: 2.142%

## CC(C)C[C@@H]1NC(=O)[C@H](CCCNC(=N)N)NC(=O)[C@H](CS)NC(=O)[C@H](CC(C)C)NC(=O)[C@H](C(C)C)NC(=O)[C@H](Cc2ccc(O)cc2)NC1=O [CRLYVL, cyclo-CRLYVL] (cyclo(CRLYVL))
PAS-B domain of HIF-1α; [1]
  Kd: 150 ± 40 µM
HIF-1α/HIF-1β PPI
  Enrichment after pan 2 [%]: 8.962%

## CC[C@H](C)[C@@H]1NC(=O)[C@H](Cc2ccccc2)NC(=O)[C@H](CCSC)NC(=O)[C@H](CCCNC(=N)N)NC(=O)[C@H](CS)NC(=O)[C@H](CC(C)C)NC1=O [CRMFIL, cyclo-CRMFIL] (cyclo(CRMFIL))
PAS-B domain of HIF-1α; [1]
  Kd: 20 ± 4 µM
HIF-1α/HIF-1β PPI
  Enrichment after pan 2 [%]: 0.6746%

## CSCC[C@@H]1NC(=O)[C@H](CCCNC(=N)N)NC(=O)[C@H](CS)NC(=O)[C@H](CC(C)C)NC(=O)[C@H](C(C)C)NC(=O)[C@H](Cc2ccc(O)cc2)NC1=O [CRMYVL, cyclo-CRMYVL] (cyclo(CRMYVL))
PAS-B domain of HIF-1α; [1]
  Kd: 58 ± 17 µM

## CC[C@H](C)[C@@H]1NC(=O)[C@H](CCCNC(=N)N)NC(=O)[C@H](CCCNC(=N)N)NC(=O)[C@H](CS)NC(=O)[C@H](CC(C)C)NC(=O)[C@H]([C@@H](C)CC)NC1=O [CRRIIL, cyclo-CRRIIL] (cyclo(CRRIIL))
PAS-B domain of HIF-1α; [1]
  Kd: 8 ± 1 µM
HIF-1α/HIF-1β PPI
  Enrichment after pan 2 [%]: 0.9912%

## CC(C)C[C@@H]1NC(=O)[C@H](C(C)C)NC(=O)[C@H](Cc2ccccc2)NC(=O)[C@H](CO)NC(=O)[C@H](CCCNC(=N)N)NC(=O)[C@H](CS)NC1=O [CRSFVL] (cyclo(CRSFVL))
HIF-1α/HIF-1β PPI
  Enrichment after pan 2 [%]: 0.6155%

## CC[C@H](C)[C@@H]1NC(=O)[C@H]([C@@H](C)O)NC(=O)[C@H](CCCNC(=N)N)NC(=O)[C@H](CS)NC(=O)[C@H](CC(C)C)NC(=O)[C@H](C(C)C)NC1=O [CRTIVL, cyclo-CRTIVL] (cyclo(CRTIVL))
PAS-B domain of HIF-1α; [1]
  Kd: > 250 µM
HIF-1α/HIF-1β PPI
  Enrichment after pan 2 [%]: 3.427%

## CC[C@H](C)[C@@H]1NC(=O)[C@H](Cc2ccc(O)cc2)NC(=O)[C@H]([C@@H](C)O)NC(=O)[C@H](CCCNC(=N)N)NC(=O)[C@H](CS)NC(=O)[C@H](CC(C)C)NC1=O [CRTYIL, cyclo-CRTYIL] (cyclo(CRTYIL))
PAS-B domain of HIF-1α; [1]
  Kd: 24 ± 1 µM
HIF-1α/HIF-1β PPI
  Enrichment after pan 2 [%]: 15.78%

## CC(C)C[C@@H]1NC(=O)[C@H](CC(C)C)NC(=O)[C@H](Cc2ccccc2)NC(=O)[C@H](C(C)C)NC(=O)[C@H](CCCNC(=N)N)NC(=O)[C@H](CS)NC1=O [CRVFLL] (cyclo(CRVFLL))
HIF-1α/HIF-1β PPI
  Enrichment after pan 2 [%]: 0.6625%

## CC(C)C[C@@H]1NC(=O)[C@H](C(C)C)NC(=O)[C@H](CC(C)C)NC(=O)[C@H](C(C)C)NC(=O)[C@H](CCCNC(=N)N)NC(=O)[C@H](CS)NC1=O [CRVLVL, cyclo-CRVLVL] (cyclo(CRVLVL))
PAS-B domain of HIF-1α; [1]
  Kd: 201 ± 16 µM
HIF-1α/HIF-1β PPI
  Enrichment after pan 2 [%]: 0.8272%

## CC[C@H](C)[C@@H]1NC(=O)[C@H](Cc2ccc(O)cc2)NC(=O)[C@H](C(C)C)NC(=O)[C@H](CCCNC(=N)N)NC(=O)[C@H](CS)NC(=O)[C@H](CC(C)C)NC1=O [CRVYIL, cyclo-CRVYIL] (cyclo(CRVYIL))
PAS-B domain of HIF-1α; [1]
  Kd: 31 ± 6 µM
HIF-1α/HIF-1β PPI
  Enrichment after pan 2 [%]: 1.306%

## CC[C@H](C)[C@@H]1NC(=O)[C@H](CC(C)C)NC(=O)[C@H](Cc2ccc(O)cc2)NC(=O)[C@H](CCCNC(=N)N)NC(=O)[C@H](CS)NC(=O)[C@H](CC(C)C)NC1=O [CRYLIL, cyclo-CRYLIL] (cyclo(CRYLIL))
PAS-B domain of HIF-1α; [1]
  Kd: 20 ± 2 µM
HIF-1α/HIF-1β PPI
  Enrichment after pan 2 [%]: 0.6083%

## CC(C)C[C@@H]1NC(=O)[C@H](C(C)C)NC(=O)[C@H](Cc2ccc(O)cc2)NC(=O)[C@H](Cc2ccc(O)cc2)NC(=O)[C@H](CCCNC(=N)N)NC(=O)[C@H](CS)NC1=O [CRYYVL, cyclo-CRYYVL] (cyclo(CRYYVL))
PAS-B domain of HIF-1α; [1]
  Kd: 59 ± 7 µM
HIF-1α/HIF-1β PPI
  Enrichment after pan 2 [%]: 0.6784%

## CC(C)C[C@@H]1NC(=O)[C@H](Cc2c[nH]c3ccccc23)NC(=O)[C@H](C(C)C)NC(=O)[C@H](CO)NC(=O)[C@H](CS)NC(=O)[C@H](Cc2ccc(O)cc2)NC1=O [CSVWLY, cyclo-CSVWLY] (cyclo(CSVWLY))
PAS-B domain of HIF-1α; [1]
  Kd: 103 ± 28 µM
HIF-1α/HIF-1β PPI
  Enrichment after pan 2 [%]: 2.022%

## CC[C@H](C)[C@@H]1NC(=O)[C@H](CCCNC(=N)N)NC(=O)[C@H](CCSC)NC(=O)[C@H](C(C)C)NC(=O)[C@H](CS)NC(=O)[C@H](C)NC1=O [CVMRIA, cyclo-CVMRIA] (cyclo(ACVMRI))
PAS-B domain of HIF-1α; [1]
  Kd: 168 ± 40 µM
HIF-1α/HIF-1β PPI
  Enrichment after pan 2 [%]: 0.6968%

## cyclo-CVTYVL
HIF-1α/HIF-1β PPI
  Enrichment after pan 2 [%]: 3.732%
